{"source": "paper PMC12067444", "about": "“Synthesis and Pharmacological Characterization of Novel Peripheral Cannabinoid-1 Receptor Blockers Based on a Tricyclic Scaffold” (Journal of Medicinal Chemistry, 2025)", "key": {"[1]": {"experiment": "Tissue distribution after acute oral administration", "format": "in vivo, mouse", "conditions": "male, C57Bl/6J, mouse, 1 mg/kg PO, 1 h post-acute administration", "experimental": "Male C57Bl/6J mice aged 7–9 weeks (3–4 mice per compound) were fasted overnight before administering each test compound. The compounds were accurately weighed and mixed with an appropriate vehicle to prepare a clear oral solution. The formulations were freshly prepared on the dosing day, and the mice were administered the compound via oral gavage within 4 h of formulation preparation. 1, 2, 4, and 8 h after compound administration, the mice were euthanized, and approximately 200 μL of blood was collected via cardiac puncture for plasma preparation. Brain and liver tissues were harvested and processed for analysis. Sample analysis was performed using LC-MS/MS, as described in detail in the SI. […]\ncalculated using the equation:\nLucif er yellow = VV bbbbbbbbbbbbbbbbbbbb ×RR FFFF bbbbbbbbbbbbbbbbbbbb ×100 […]\nMeasurements of BNS808 using LC-MS/MS. MS/MS analyses were conducted using a Sciex QTRAP® 6500+ mass spectrometer (Framingham, MA, USA). Air was […]\nInfinity 1031 nitrogen generator (Peak Scientific, Inchinnan, Scotland). Purified air […]\ngenerator to ensure a continuous and stable air supply."}, "mice": {"tested_on": "mice", "experiment": "Cataleptic behavior (bar test) induced by WIN-55,212", "format": "in vivo, mouse", "conditions": "rimonabant 10 mg/kg PO, BNS808 1 mg/kg; 30 min before WIN-55,212 3 mg/kg IP; bar test at 60 min", "experimental": "Catalepsy was assayed using the bar test. Mice were taken out of their home cages, and their forepaws were placed on a horizontal bar measuring 0.5 cm in diameter, positioned 4 cm above the bench surface. Typically, vehicle-treated mice released the bar within 2 s. Cataleptic behavior was defined as the mice remaining motionless, grasping onto the bar, with an arbitrary cutoff of 30 s. The CB1R antagonists, including rimonabant at doses 1 and 10 mg/kg and BNS808 at a dose of 1 mg/kg, were administered 30 min before the IP injection of 3 mg/kg WIN-55,212 (a CB1R agonist). The test was conducted 60 min after the administration of the agonist."}, "[2]": {"experiment": "Brain compound levels in the CNS side-effect study (Figure 2H)", "format": "in vivo", "conditions": "male, C57Bl/6J, mouse, brain; rimonabant 10 mg/kg PO, 1 h after administration", "experimental": "The ability of BNS808 and rimonabant (as a positive control) to induce centrally mediated hyperactivity in mice (A–C). Wild-type, male, C57Bl/6J mice received a single dose of rimonabant (10 mg/kg, PO), BNS808 (1 or 10 mg/kg, PO) or vehicle, and the Promethion High-Definition Behavioral Phenotyping System monitored the activity profile. In addition, the ability of BNS808 and rimonabant (as a positive control) to inhibit the hypomotility induced by a CB1R receptor agonist (HU210; 30 μg/kg, IP) was tested in wild-type, male, C57Bl/6J mice which received a single dose of rimonabant (10 mg/kg, PO) or BNS808 (1 or 10 mg/kg, PO) or vehicle (D–F). […] Data represent the mean ± SEM from 4 to 8 mice per group. *P < 0.05 vs Vehicle-treated control. ^#P < 0.05 vs rimonabant."}}, "note": "Read-outs that look alike come from different tables or passages of the source."}
{"smiles": "Cc1c(C(=O)NN2CCCCC2)nn(-c2ccc(Cl)cc2Cl)c1-c1ccc(Cl)cc1", "note": "[rimonabant]", "values": [{"measurement": "Kp at 1 h", "setting": "[1]; brain / plasma, read-out: brain-to-plasma (B/P) ratio", "result": 4.28}, {"measurement": "concentration at 1 h", "setting": "[1]; brain, read-out: brain concentration", "result": 128, "unit": "ng/g"}, {"measurement": "Kp at 1 h", "setting": "[1]; liver / plasma, read-out: liver/plasma (L/P) ratio", "result": 7.4}, {"measurement": "concentration at 1 h", "setting": "[1]; liver, read-out: liver concentration", "result": 226, "unit": "ng/g"}, {"measurement": "concentration at 1 h", "setting": "[1]; plasma, read-out: plasma concentration", "result": 30, "unit": "ng/mL"}, {"measurement": "blockade of WIN-55,212-induced cataleptic behavior", "setting": "mice", "result": "blocked the cataleptic behavior"}, {"measurement": "concentration at 1 h", "setting": "[2]", "result": 600, "unit": "ng/g"}]}
